Measurements from US20060051321A1, “Biological compositions and methods for treatment of testicular cancer” (Ultra Biotech Limited, priority 2003, published 2006).

Key:
Assay type in all cases: in vivo
[1] = tested on: testicular cancer cell line CRL-1973; assay: Tumor growth in Wistar rat model of human testicular cancer (Example 8); conditions: rats injected s.c. with CRL-1973 cells; 30 consecutive days of treatment; sacrificed on 31st day from tumor inoculation
Description: The following example illustrates the benefit of a biological composition of the invention in a Wistar rat model of human testicular cancer. The growth of the tumor in the rats was studied.
(§1) Numerous animal studies have reported the use of Wistar rat models in the study of human testicular cancer. There is very high success rate for transplanting testicular tumor CRL-1973 cells in rats. The testicular tumor cell line CRL-1973 can be ordered from the American Type Culture Collection.
(§2) The biological composition comprising 10^8 cells per ml of activated and conditioned yeast cells of the strain Saccharomyces cerevisiae Hansen strain AS2.182 was prepared by the methods described in Section 5.1 and subsections therein.
The animals used for the experiments were male Wistar rats (obtainable from the Chinese Academy of Military Medical Sciences, Beijing, China). About 2×10^7 viable tumor cells of the testicular cancer cell line CRL-1973 (obtainable from the Cancer Institute, Chinese Academy of Medical Sciences, Beijing, China) in about 0.2 ml culture suspension was injected subcutaneously into the animals. […]
The rats received the biological compositions, untreated yeast cells, VLB or saline on the same day as the tumor cells were transplanted. […] The weight of the rats and the weight of the tumor were determined by standard techniques.

[2] = tested on: testicular cancer cell line CRL-1973; assay: Survival in Wistar rat model of human testicular cancer (Example 9); conditions: for Number of live animals remaining in the groups after 30 days of treatment: 30 rats per group
Description: The survival time of mice after tumor injection and treatment was studied.
as §2
The animals were prepared in a similar manner as described in Section 8.1.
After injection with CRL-1973 cells, the rats were divided into 4 experimental groups of ten rats per group and one control group. The four experimental groups were triplicated (ie., using a total of 120 rats in the experimental groups). In group 2AY, the rats received 1.2 ml of the biological composition once per day. In group 2NY, the rats received 1.2 ml of the untreated yeast cells once per day. […] In group 2CK1, the rats received 1.2 ml of physiological saline once per day.
(§3) The rats received the biological compositions, untreated yeast cells, VLB or saline on the same day as the tumor cells were transplanted. The rats in group 2CK2 also started receiving saline on the same day as the other four groups. The biological compositions, untreated yeast cells and saline were administered orally by a feeding tube and the VLB by intravenous injection for 30 consecutive days. The mice were observed over 6 months from the day of tumor inoculation and survival was recorded. The weight of the mice and the weight of the tumor were determined by standard techniques.

[3] = tested on: testicular cancer cell line HTB-104; assay: Survival in kun ming mouse model of human testicular cancer (Example 7); conditions: for Number of live animals remaining in the groups after 30 days of treatment: 30 mice per group
Description: The following example illustrates the benefit of a biological composition of the invention in a kun ming mouse model of human testicular cancer. The survival time of rats after tumor injection and treatment was studied.
The biological composition comprising 10^8 cells per ml of activated and conditioned yeast cells of the strain Saccharomyces cerevisiae Hansen strain AS2. 182 was prepared by the methods described in Section 5.1 and subsections therein.
The animals were prepared in a similar manner as described in Section 6.1.
After injection with HTB-104 cells, the mice were divided into 4 experimental groups of ten mice per group and one control group. The four experimental groups were triplicated (i.e., using a total of 120 mice in the experimental groups). In group 2AY, the mice received 0.5 ml of the biological composition once per day. In group 2NY, the mice received 0.5 ml of the untreated yeast cells once per day. In group 2BLM, the mice were injected subcutaneously with 0.8 mg of bleomycin (BLM) per kg body weight per day. In group 2CK1, the mice received 0.5 ml of physiological saline once per day.
as §3, with “The mice” for “The rats”, “cells, BLM” for “cells, VLB”, “cells or” for “cells and”, “the BLM” for “the VLB”, “by subcutaneous” for “by intravenous”

[4] = tested on: testicular cancer cell line HTB-104; assay: Tumor growth in kun ming mouse model of human testicular cancer (Example 6); conditions: mice injected s.c. with HTB-104 cells; 30 consecutive days of treatment; sacrificed on 31st day from tumor inoculation
Description: The following example illustrates the benefit of a biological composition of the invention in a kun ming mouse model of human testicular cancer. The growth of tumors in the mice was studied.
as §1, with “kun ming mouse” for “Wistar rat”, “almost a 100%” for “very high”, “HTB-104” for “CRL-1973”, “mice.” for “rats.”
as §2
The animals used for the experiments were kun ming mouse (obtainable from the Chinese Academy of Military Medical Sciences, Beijing, China). Only males 20 to 22 gram in body weight, 6 to […] old were used. […]
The mice received the biological compositions, untreated yeast cells, BLM or saline on the same day as the tumor cells were transplanted. […] On the 31st day from tumor inoculation, the mice were sacrificed and the weight of the mice and the weight of the tumor were determined by standard techniques.

[5] = 0 month after cessation of treatment
[6] = 1 month after cessation of treatment
[7] = 2 months after cessation of treatment
[8] = 3 months after cessation of treatment
[9] = 4 months after cessation of treatment
[10] = 5 months after cessation of treatment
[11] = 6 months after cessation of treatment

Compound | mean weight of tumor nodules and standard deviation [1] | Number of live animals remaining in the groups after 30 days of treatment [2, 5] | Number of live animals remaining in the groups after 30 days of treatment [2, 6] | Number of live animals remaining in the groups after 30 days of treatment [2, 7] | Number of live animals remaining in the groups after 30 days of treatment [2, 8] | Number of live animals remaining in the groups after 30 days of treatment [2, 9] | Number of live animals remaining in the groups after 30 days of treatment [2, 10] | Number of live animals remaining in the groups after 30 days of treatment [2, 11] | death of all animals, time from injection of tumor cells ([2]; rats bearing CRL-1973 cells, 30 days of treatment) | mean weight of tumor nodules and standard deviation ([2]; rats that survived, observed over 6 months from tumor inoculation) | Number of live animals remaining in the groups after 30 days of treatment [3, 5] | Number of live animals remaining in the groups after 30 days of treatment [3, 6] | Number of live animals remaining in the groups after 30 days of treatment [3, 7] | Number of live animals remaining in the groups after 30 days of treatment [3, 8] | Number of live animals remaining in the groups after 30 days of treatment [3, 9] | Number of live animals remaining in the groups after 30 days of treatment [3, 10] | Number of live animals remaining in the groups after 30 days of treatment [3, 11] | death of all animals, time from injection of tumor cells ([3]; mice bearing HTB-104 cells, 30 days of treatment) | mean weight of tumor nodules and standard deviation ([3]; mice that survived, observed over 6 months from tumor inoculation) | mean weight of tumor nodules and standard deviation [4]
CC[C@]1(O)C[C@@H]2CN(CCc3c([nH]c4ccccc34)[C@@](C(=O)OC)(c3cc4c(cc3OC)N(C)[C@H]3[C@@](O)(C(=O)OC)[C@H](OC(C)=O)[C@]5(CC)C=CCN6CC[C@]43[C@@H]65)C2)C1 [VLB, vinblastine] | 2.67 ± 2.65 g | 30 | 30 | 22 | 9 | 1 | 0 | 0 | all died after five months | all animals dead |  |  |  |  |  |  |  |  |  | 
bleomycin [BLM] |  |  |  |  |  |  |  |  |  |  | 30 | 27 | 16 | 0 | 0 | 0 | 0 | all died after three months | all animals dead | 1.13 ± 0.65 mg
